According to US20230075779A1, “METHODS AND COMPOSITIONS FOR TREATING CANCER OR VIRAL INFECTION WITH A PLA2G2D ANTAGONIST” (Apeximmune Therapeutics Inc., priority 2020, published 2023):
Entries after “also recorded” stand apart in the source; their conditions may differ.

Legend:
PLA2G2D = biological target: T1, PLA2G2D (Homo sapiens, UniProt Q9UNK4); assay: Reversal of PLA2G2D-Fc induced suppression of T cell proliferation in PBMC culture by sPLA2 inhibitor; assay type: cell-based; settings: 0-25 μM inhibitor, PBMC culture with wild type PLA2G2D-Fc
T1 sequence (Q9UNK4 21-145): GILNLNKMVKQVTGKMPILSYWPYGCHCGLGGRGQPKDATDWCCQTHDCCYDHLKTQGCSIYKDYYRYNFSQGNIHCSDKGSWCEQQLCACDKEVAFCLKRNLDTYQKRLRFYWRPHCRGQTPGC

[1] = system: PBMC derived CD4+ and CD8+ T cells; assay: T cell proliferation (CFSE) in anti-CD3/anti-CD28 stimulated PBMC culture, soluble protein; assay type: cell-based, human; settings: soluble protein 0-20 μg/ml, 72 hours
Experimental: The effect of human PLA2G2D-Fc on T cell activation was assessed in peripheral blood mononuclear cell (PBMC) or isolated T cell cultures. PBMC were isolated from leukoreduction system (LRS) chambers from healthy human donors by centrifugation over Ficoll-Paque Plus (GE Life Sciences) and labeled in a 5 μM CFSE solution (Molecular Probes) for 12 min at 37° C. and washed. 2×10^5 labeled PBMC per well of a 96 well round bottom plate were then stimulated with 1 μg/ml anti-CD3 (OKT3, Invitrogen) and 0.2 μg/ml anti-CD28 (CD28.2, Invitrogen) in the presence of soluble 0-20 μg/ml human PLA2G2D-Fc or control human IgG1-Fc protein (Sino Biological) as indicated in a final volume of 200 μl RPMI (Corning). PBMC cultures were incubated for 72 hours at 37° C. before the supernatants were harvested and measured for IFNγ and IL-2 levels using MSD V-plex assays (Meso Scale Discovery). T cell proliferation within the PBMC culture was simultaneously assessed by staining cells with fluorophore-conjugated anti-CD3, anti-CD4, and anti-CD8 antibodies (Biolegend) and Live/Dead Fixable dead cell stain (Molecular Probes), and running on a BD LSRFortessa X-20 flow cytometer (Becton Dickinson). FACS data was analyzed using FlowJo software. […]

PBMC cultures = assay: IFNγ and IL-2 levels in stimulated PBMC culture supernatants (MSD V-plex); assay type: cell-based, human; settings: soluble protein 0-20 μg/ml, 72 hours
Experimental: The effect of human PLA2G2D-Fc on T cell activation was assessed in peripheral blood mononuclear cell (PBMC) or isolated T cell cultures. PBMC were isolated from leukoreduction system (LRS) chambers from healthy human donors by centrifugation over Ficoll-Paque Plus (GE Life Sciences) and labeled in a 5 μM CFSE solution (Molecular Probes) for 12 min at 37° C. and washed. 2×10^5 labeled PBMC per well of a 96 well round bottom plate were then stimulated with 1 μg/ml anti-CD3 (OKT3, Invitrogen) and 0.2 μg/ml anti-CD28 (CD28.2, Invitrogen) in the presence of soluble 0-20 μg/ml human PLA2G2D-Fc or control human IgG1-Fc protein (Sino Biological) as indicated in a final volume of 200 μl RPMI (Corning). PBMC cultures were incubated for 72 hours at 37° C. before the supernatants were harvested and measured for IFNγ and IL-2 levels using MSD V-plex assays (Meso Scale Discovery). T cell proliferation within the PBMC culture was simultaneously assessed by staining cells with fluorophore-conjugated anti-CD3, anti-CD4, and anti-CD8 antibodies (Biolegend) and Live/Dead Fixable dead cell stain (Molecular Probes), and running on a BD LSRFortessa X-20 flow cytometer (Becton Dickinson). FACS data was analyzed using FlowJo software.

[2] = system: CD4+ and CD8+ T cells in PBMC cultures; assay: T cell proliferation in stimulated PBMC culture, plate-immobilized protein; assay type: cell-based, human; settings: immobilized protein coated at 0-10 μg/ml
Experimental: The effect of human PLA2G2D-Fc on T cell activation was assessed in peripheral blood mononuclear cell (PBMC) or isolated T cell cultures. […] PBMC cultures were incubated for 72 hours at 37° C. before the supernatants were harvested and measured for IFNγ and IL-2 levels using MSD V-plex assays (Meso Scale Discovery). T cell proliferation within the PBMC culture was simultaneously assessed by staining cells with fluorophore-conjugated anti-CD3, anti-CD4, and anti-CD8 antibodies (Biolegend) and Live/Dead Fixable dead cell stain (Molecular Probes), and running on a BD LSRFortessa X-20 flow cytometer (Becton Dickinson). FACS data was analyzed using FlowJo software.
To assess the effect of immobilized PLA2G2D protein on T cell proliferation in PBMC cultures, the same assay was utilized except 100 μl of 0-10 μg/ml human PLA2G2D-Fc or control human IgG1-Fc protein was coated overnight in PBS at 4° C. on 96-well flat bottom plates the day before PBMC were prepared and added along with anti-CD3 and anti-CD28 antibodies.

isolated T cells = assay: Proliferation of isolated T cell cultures with anti-CD3/anti-CD28 stimulation; assay type: cell-based, human
Experimental: To evaluate the effect of PLA2G2D protein on isolated T cells, […] protein as well as with 1 μg/ml anti-CD3 (OKT3) and 0.2 μg/ml anti-CD28 (CD28.2) in 100 μl of PBS. The following day, plates were washed twice with PBS before addition of T cells. T cells were isolated from PBMC using a Pan T Cell Isolation Kit (Miltenyi) and labeled with CFSE as described above. 1×10^5 purified and labeled T cells were added to each well of the coated plate in a final volume of 200 μl RPMI. T cells were allowed to proliferate for 72 hours at 37° C. before supernatants were collected for IFNγ and IL-2 analysis by MSD and proliferation was analyzed by FACS.

primary human T cells = assay: Binding of PLA2G2D-Fc to resting and activated primary human T cells (FACS); settings: 0-10 μg/ml
Experimental: To determine whether PLA2G2D elicits immune suppression by directly binding to T cells in vitro, the level of PLA2G2D binding was assessed on resting and activated primary human T cells. T cells were isolated from PBMC using a Pan T Cell Isolation Kit (Miltenyi) and cultured in the presence or absence of beads loaded with anti-human CD2, CD3, and CD28 antibodies (human T Cell Activation/Expansion Kit, Miltenyi) in RPMI for 48 hours at 37° C. Stimulated or unstimulated T cells were then harvested, washed, and incubated with 0-10 μg/ml of human PLA2G2D-Fc protein or human IgG1-Fc protein for 30 minutes at 4° C. Cells were washed 3 times with PBS and then stained with Alexa 488-conjugated goat anti-human IgG1 antibodies (Invitrogen) for 30 minutes at 4° C., washed, then analyzed by FACS.

Row | Compound | reversal of immune suppression induced by PLA2G2D (PLA2G2D) | CD4+ and CD8+ T cell proliferation [1] | CD4+ and CD8+ T cell proliferation ([1]; listed as PLA2G2D protein) | levels of IFNγ and IL-2 (PBMC cultures) | levels of IFNγ and IL-2 (PBMC cultures; listed as PLA2G2D protein) | CD4+ and CD8+ T cell proliferation [2] | CD4+ and CD8+ T cell proliferation ([2]; listed as PLA2G2D protein) | proliferation of isolated T cell cultures (isolated T cells; immobilized protein coated at 0-10 μg/ml, 72 hours) | suppressive effect on isolated T cells (isolated T cells; soluble protein added instead of coated (data not shown)) | binding to activated CD4+ and CD8+ T cells (primary human T cells; stimulated T cells, compared with control human IgG1-Fc) | binding to unstimulated T cells (primary human T cells; unstimulated T cells)
1 | CCc1c(C(=O)C(N)=O)c2c(OCC(=O)O)cccc2n1Cc1ccccc1 [LY315920] | does not rescue immune suppression; also recorded: does not reverse immune suppression | – | – | – | – | – | – | – | – | – | –
2 | PLA2G2D-Fc: soluble human PLA2G2D-Fc protein (Sino Biological); the immunosuppressive protein studied | – | dose-dependently suppresses; also recorded: dose dependently suppressed | dose-dependently suppresses | dose-dependently and significantly decreased | dose-dependently suppresses | suppressed | dose-dependently suppresses | dose-dependently suppresses | no suppressive effect | preferentially binds | to a small degree
